Data taken from patent publication US20040127440A1, “Methods and compositions for control of bone formation via modulation of neuropeptide Y activity” (BAYLOR COLLEGE OF MEDICINE, priority 2000, published 2004).

Tested on: wt mice
Experiment: Intracerebroventricular infusion of NPY in wt mice, histological/histomorphometric analysis of vertebrae
Format: in vivo
Conditions: 4 month-old wt mice, icv infusion 0.5 μl/hour (75 ng/hr) for 28 days, compared with PBS-treated mice
Protocol: Bone specimens were processed as described (Ducy et al., 1999, Genes Dev 13, 1025-1036).
Histological analyses were performed on undecalcified sections stained with the von Kossa reagent and counterstained with Kernechtrot (Amling et al., 1999, Endocrinology, 140: 4982-4987). Double labeling technique with calcein has been described (Amling et al., 1999, Endocrinology, 140: 4982-4987). Static and dynamic histomorphometric analyses were performed according to standard protocols (Parfitt et al., 1987, J Bone Min Res, 2:595-610) using the Osteomeasure Analysis System (Osteometrics, Atlanta). Statistical differences between groups (n=4 to 6) were assessed by Student's test.
Animals were anesthetized with avertin and placed on a stereotaxic instrument (Stoelting). The calvaria was exposed and a 0.7 mm hole was drilled upon bregma. A 28-gauge cannula (Brain infusion kit II, Alza) was implanted into the third ventricle according to the following coordinates: midline, −0.3 AP, 3 mm ventral (0 point bregma). The cannula was secure to the skull with cyanoacrylate, and attached with Tygon tubing to an osmotic pump (Alza) placed in the dorsal subcutaneous space of the animal. The rate of delivery was 0.5 μl/hour (75 ng/hr) of NPY (Sigma) or PBS for 28 days.
The issue of whether NPY binding to its receptor would affect bone mass was examined in this example. […]

Substance: neuropeptide Y [NPY]
- bone mass: decrease
- bone volume: decrease
